# From patent publication US8067042B1 (Mutual Pharmaceutical Company, Inc., priority 2007, dated 2011)
# Legend:
# Assay type in all cases: in vitro ADME
# CYP2A6 = biological target: T1, CYP2A6 (Homo sapiens, UniProt P11509); set-up: purchased BD Biosciences Discovery Labware, Woburn, Mass; host or cells: baculovirus-infected insect cells; conditions: 50 μM megestrol acetate, 20 pmol CYP2A6
# T1 sequence (P11509 1-494): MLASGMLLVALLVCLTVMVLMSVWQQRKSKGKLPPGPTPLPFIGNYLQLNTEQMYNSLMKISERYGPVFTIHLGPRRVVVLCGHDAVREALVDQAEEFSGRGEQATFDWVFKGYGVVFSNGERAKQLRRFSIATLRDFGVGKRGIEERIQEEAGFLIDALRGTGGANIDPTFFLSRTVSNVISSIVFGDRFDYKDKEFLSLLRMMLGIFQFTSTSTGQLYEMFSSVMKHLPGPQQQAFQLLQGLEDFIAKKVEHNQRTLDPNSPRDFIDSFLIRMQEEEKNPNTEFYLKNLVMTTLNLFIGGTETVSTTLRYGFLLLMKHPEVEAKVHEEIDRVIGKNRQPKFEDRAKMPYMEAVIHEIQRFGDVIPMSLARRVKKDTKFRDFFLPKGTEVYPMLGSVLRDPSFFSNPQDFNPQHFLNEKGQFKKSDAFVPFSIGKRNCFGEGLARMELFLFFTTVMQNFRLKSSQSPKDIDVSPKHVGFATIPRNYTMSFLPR
# CYP2C8 [1] = biological target: T2, CYP2C8 (Homo sapiens, UniProt P10632); set-up: purchased BD Biosciences Discovery Labware, Woburn, Mass; host or cells: baculovirus-infected insect cells; conditions: 50 μM megestrol acetate, 20 pmol CYP2C8
# T2 sequence (P10632 1-490): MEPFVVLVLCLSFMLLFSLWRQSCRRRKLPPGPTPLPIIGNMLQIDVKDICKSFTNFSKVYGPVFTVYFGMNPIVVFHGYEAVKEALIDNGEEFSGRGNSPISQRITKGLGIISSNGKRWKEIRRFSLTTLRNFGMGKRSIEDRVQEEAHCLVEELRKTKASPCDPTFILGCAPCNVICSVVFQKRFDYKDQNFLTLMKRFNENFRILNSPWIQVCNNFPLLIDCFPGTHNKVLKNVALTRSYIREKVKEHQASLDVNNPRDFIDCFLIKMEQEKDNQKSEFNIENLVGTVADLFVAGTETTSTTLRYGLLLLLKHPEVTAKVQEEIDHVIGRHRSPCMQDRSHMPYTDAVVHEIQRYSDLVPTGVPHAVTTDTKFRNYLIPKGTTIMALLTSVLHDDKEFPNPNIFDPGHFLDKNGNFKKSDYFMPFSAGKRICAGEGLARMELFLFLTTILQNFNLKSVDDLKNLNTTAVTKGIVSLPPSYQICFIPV
# CYP2C8 [2] = conditions: 50 μM megestrol acetate, microsomes, quercetin
structure (smiles),measurement,setting,value
"CC(=O)O[C@]1(C(C)=O)CC[C@H]2[C@@H]3C=C(C)C4=CC(=O)CC[C@]4(C)[C@H]3CC[C@@]21C [Megestrol Acetate, 17 α-acetyloxy-6-methylpregna-4,6-diene-3,20-dione]",metabolites formed,CYP2A6,no metabolites were formed
same,megestrol acetate converted to its metabolites,CYP2C8 [1],0.72%
same,difference in metabolism in the presence or absence of the inhibitor (LC/MS),CYP2C8 [2],a significant difference in metabolism
